In test [1] the test system is duckweed Lemnna paucicostata. Kind of test: Growth of duckweed (increase in leaf area). The class given is in vivo. As to conditions: leaf area after 8-10 days, read-out: Growth inhibition (% of the control); for inhibition at 100 µM: use concentration 10^-4 M; for inhibition at 10 µM: use concentration 10^-5 M; for inhibition at 1 µM: use concentration 10^-6 M. Here is the method: The effect of the herbicidal compounds according to the invention on the growth of duckweed can be seen from the following test results: p The duckweed Lemnna paucicostata was grown under sterile conditions in 250 ml glass vessels containing 100 ml of inorganic nutrient solution supplemented with 1% sucrose, as described by Grossmann et al., Pesticide Science 35 (1992), 283-289. At the beginning of the test, 150 μl of a solution of active ingredient in acetone (stock solution: 100-fold concentrated) were pipetted into Petri dishes (diameter 6 cm, height 1.5 cm; Greiner, Frickenhausen) containing 15 ml of nutrient solution (without added sucrose). Only the solvent component of the active ingredient solution was added to the nutrient solution for the control tests. Then, 4 Lemna plants were introduced into each dish, the dishes were covered with lids and incubated in a controlled-environment cabinet at 25° C. under permanent light conditions (Phillips TL white neon tubes, approx. 40 μmol m^-2 s^-1; λ=400-750 nm). After 8-10 days, the increase in leaf area was determined using an imaging apparatus (Imago, Compulog Computer Syst., Boblingen) as growth parameter, and this was used to calculate the % growth inhibition relative to the control.

The target of test [2] is T1, ferredoxin:NADP reductase (Spinacia oleracea, UniProt P00455).
T1 construct: from spinach leaves--obtainable from Sigma, Germany; purchased Sigma, Germany; host or cells: spinach leaves
T1 sequence (P00455 56-369): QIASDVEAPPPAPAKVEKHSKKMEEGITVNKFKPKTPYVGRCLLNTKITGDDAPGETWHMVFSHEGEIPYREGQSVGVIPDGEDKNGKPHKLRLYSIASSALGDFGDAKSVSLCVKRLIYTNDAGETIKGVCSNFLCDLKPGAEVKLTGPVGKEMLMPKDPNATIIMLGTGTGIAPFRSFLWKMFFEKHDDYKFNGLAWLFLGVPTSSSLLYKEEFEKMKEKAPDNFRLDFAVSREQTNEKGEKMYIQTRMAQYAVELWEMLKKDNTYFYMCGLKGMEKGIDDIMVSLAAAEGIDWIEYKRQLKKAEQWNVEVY
Kind of test: Inhibition of diaphorase reaction of ferredoxin:NADP reductase. The class given is biochemical, spinach. Here is the method: (§1) Ferredoxin:NADP reductase not only catalyzes the physiologically relevant, reversible reaction of NADP with ferrecoxin (ferredoxin reductase activity), but also the NADPH-dependent reduction of potassium hexacyanoferrate(III) (diaphorase activity). Methods for measuring these reactions are described in the literature (Meth. Enzymol., Volumes 23 and 69).
The diaphorase activity can be determined by incubating, for example, chloroplasts or isolated ferredoxin:NADP reductase (Sigma) in 100 mM Tris/HCl buffer, pH 8.2+0.5 mM potassium hexacyanoferrate(III)+0.5 mM NADPH or an NADPH-regenerating system such as, for example, 0.5 mM NADP+2.5 mM glucose-6-phosphate+1 unit/ml glucose-6-phosphate dehydrogenase at 25° C. and monitoring the decrease in absorption at 420 nm. An incubation mixture without ferredoxin:NADP reductase may be used as blank value.
(§2) The action of a test substance can be tested by dissolving the substance in a suitable solvent such as, for example, dimethyl sulfoxide and pipetting an aliquot of the solution to the above-described incubation mixture. A corresponding aliquot of the pure solvent may be used as control. The action of the test substance can be determined by comparing the absorption changes of the respective incubation batches.

The target in test [3] is T1, ferredoxin:NADP reductase. The experiment in a line: Inhibition of ferredoxin reductase reaction of ferredoxin:NADP reductase. The format is biochemical, spinach. The conditions noted are these: 1 mM. Here is the method: as §1
The ferredoxin reductase activity can be determined by incubating, for example, chloroplast extracts or isolated ferredoxin:NADP reductase (Sigma) in 100 mM Tris/HCl buffer, pH 7.8+0.2 mM NADPH+0.65 mg/ml cytochrome C+0.1 mg/ml ferredoxin at 25° C. and measuring the change in the absorption at 550 nm, or the difference in absorption change at 550 nm and 540 nm. An incubation mixture without ferredoxin can be used as blank value.
as §2

In general, inhibition refers to the change of the read-out against control, counted positive when it falls.

`CCCCCCCCCCCCCCCCS(=O)(=O)N(C)c1cccc(S(=O)(=O)NN=c2sc3ccc(S(=O)(=O)O)cc3n2C)c1` [A.48]: in test [1], the inhibition at 100 µM is 42%, the inhibition at 10 µM was found to be 34% and the inhibition at 1 µM was found to be 28%.

For the molecule `CCCCCCCCCCCCCCCCS(=O)(=O)Nc1cccc(S(=O)(=O)NN=c2sc3ccc(S(=O)(=O)C(F)F)cc3n2C)c1` [A.47], the inhibition at 100 µM in test [1] came to 18%.

Regarding `CCCCCCCCCCCCCCCCNS(=O)(=O)c1ccc(S(=O)(=O)NN=c2sc3ccc(S(=O)(=O)C(F)F)cc3n2C)cc1` [A.55], the inhibition at 100 µM in test [1] turned out to be 28%.

As to `CCCCCCCCCCCCCCCCNS(=O)(=O)c1ccc(S(=O)(=O)NN=c2sc3ccccc3n2C)cc1` [A.51], the inhibition at 100 µM in test [1] worked out at 29%.

Consider `CCCCCCCCCCCCCCCCNS(=O)(=O)c1ccc(S(=O)(=O)NN=c2sc3ccc(S(=O)(=O)O)cc3n2C)cc1` [A.52], for which, in test [1], the inhibition at 100 µM was determined as 89% and the inhibition at 10 µM worked out at 12%.

Regarding `CCCCCCCCCCCCCCCCS(=O)(=O)c1ccc(S(=O)(=O)O)cc1C(=O)NN=c1sc2ccc(S(=O)(=O)O)cc2n1C` [B.3], the inhibition at 50 µM in test [2] amounted to 102%. The “AU/min *10^-3 (diaphorase reaction, decrease in absorption at 420 nm)” value in test [2] (50 μM, mean +/- standard deviation of 6 experiments, control (DMSO) 31.3, blank without enzyme 9.4) is listed as 9.0 +/- 1.4 AU/min *10^-3. In addition, the inhibition at 1000 µM in test [3] is 90%. In addition, the “E (550 -540) (ferredoxin reductase reaction)” value in test [3] (mean +/- standard deviation of 6 experiments, control (DMSO) 0.692, blank without ferredoxin 0.027) is recorded as 0.093 +/- 0.026. In addition, in test [1], the inhibition at 100 µM is 96%, the inhibition at 10 µM was determined as 66% and the inhibition at 1 µM amounted to 54%.

For `CCCCCCCCCCCCCCCCS(=O)(=O)c1ccc(S(=O)(=O)NN=c2sc3cc(S(=O)(=O)O)ccc3n2C)cc1NC(C)=O` [A.46], in test [1], the inhibition at 100 µM turned out to be 56%, the inhibition at 10 µM was 33% and the inhibition at 1 µM came out at 13%.

Regarding `CCCCCCCCCCCCCCCCS(=O)(=O)c1ccc(S(=O)(=O)NN=c2sc3ccc(S(=O)(=O)O)cc3n2C)cc1C(=O)O` [A.49], in test [1], the inhibition at 100 µM turned out to be 77%, the inhibition at 10 µM was 49% and the inhibition at 1 µM turned out to be 19%.

Regarding `CCCCCCCCCCCCCCCCOc1ccc(C(=O)O)cc1S(=O)(=O)NN=c1sc2ccc(S(=O)(=O)O)cc2n1C` [A.28], in test [1], the inhibition at 100 µM stood at 60%, the inhibition at 10 µM is 42% and the inhibition at 1 µM came to 26%.
